In patent US10501805B2, “Methods for determining responsiveness to MEK/ERK inhibitors” (CROWN BIOSCIENCE, INC. (TAICANG), priority 2014, dated 2019):

Experiments:
Type in all cases: cell-based
BT474 = assay: CellTiter-Glo cell viability, IC50 determination; conditions: Homo sapiens, BT-474, 72 h; BT474 cell line; 3-day CTG assay; read-out: Absolute IC50
Method: (§1) All the cells will be cultured in the media supplemented with 10% FBS except for which are marked specially, in the temperature of 37° C., 5% CO2 and 95% humidity.
(§2) Cell viability is assayed by using CellTiter-Glo® Luminescent Cell Viability Assay Kit (Cat. No.: G7572, Promega. Store at −20° C.). To prepare the CellTiter_Glo Reagent, the CellTiter-Glo Buffer was thawed and equilibrated to room temperature prior to use. For convenience the CellTiter-Glo Buffer may be thawed and stored at room temperature for up to 48 hours prior to use. The lyophilized CellTiter-Glo Substrate is equilibrated to room temperature prior to use. The appropriate volume (100 ml) of CellTiter-Glo Buffer is transferred into the amber bottle containing CellTiter-Glo Substrate to reconstitute the lyophilized enzyme/substrate mixture, which forms the CellTiter-Glo Reagent. In certain cases, the entire liquid volume of the CellTiter-Glo Buffer bottle may be added to the CellTiter-Glo Substrate vial. Mix by gently vortexing, swirling or by inverting the contents to obtain a homogeneous solution. The CellTiter-Glo Substrate should go into solution easily in less than one minute.
(§3) The day before the experiment (Day −1), cells were dissociated during the logarithmic growth period with Cell Disassociation Buffer (Gibco 13151-014) and mixed with appropriate cell media and centrifuge at 1000 rpm for 3 minutes. The cells were re-suspended and counted using Countstar before adjusting cell concentrations to optimized density (i.e. 4.44×10^4 cells/ml) with respective culture medium listed in Table 1 for 3-day CTG assay (The cell density was optimized before actual study; cell density used in the test may vary for different cell lines). 90 μl cell suspensions were added to two 96-well plates (plates A and B) with the final cell density of 4×10^3 cells/well for 3-day CTG assay (the cell density was optimized before actual study; cell density used in the test may vary for different cell lines). The plate A and B group were incubated for overnight in humidified incubator at 37° C. with 5% CO2.
(§4) On Day 0, for plate A group, 10 μl culture medium was added to each well for T0 reading. CellTiter-Glo® Reagent was added at equal volume of cell culture medium present in each well (e.g., add 100 μl of reagent to 100 μl of medium containing cells for a 96-well plate). Contents were mixed for 2 minutes on an orbital shaker to facilitate cell lysis. The plate was allowed to incubate at room temperature for 10 minutes to stabilize luminescent signal. Backseal black sticker was added to the bottom of each plate. Luminescence was recorded using EnVision Multi Label Reader. This formed the basis for T0 value.
(§5) On Day 0, the test articles and positive controls were dissolved at the concentration indicated at Test Article Dilution map. 100× solution in PBS was prepared and then diluted with appropriate culture media (1:10) into 10×working solutions. 10 μl (10×) drug solutions were dispensed in each well (triplicate for each drug concentration) of the plate B group according to plate inoculation map. The test plates were incubated for […] in the humidified incubator at 37° with 5% CO2.
(§6) On Day 3, CellTiter-Glo® Reagent was added at equal volume of cell culture medium present in each well (e.g., add 100 μl of reagent to 100 μl of medium containing cells for a 96-well plate). Contents were mixed for 2 minutes on an orbital shaker to induce cell lysis. The plate was allowed to incubate at room temperature for 10 minutes to stabilize luminescent signal. Backseal black sticker was placed to the bottom of each plate. Luminescence was recorded using EnVision Multi Label Reader.
(§7) In order to calculate IC50s, a dose-response curve was fitted using a nonlinear regression model with a sigmoidal dose response. The formula for calculating surviving rate was shown below; Absolute IC50 is calculated where Y axis set at 50% using GraphPad Prism 5.0. Software. […]

NCI-H1155 = assay: CellTiter-Glo cell viability, IC50 determination; conditions: Homo sapiens, 72 h; NCI-H1155 cell line; 3-day CTG assay; read-out: Absolute IC50
Method: as §1, §2, §3, §4, §5, §6, §7

NCI-H1703 = assay: CellTiter-Glo cell viability, IC50 determination; conditions: Homo sapiens, 72 h; NCI-H1703 cell line; 3-day CTG assay; read-out: Absolute IC50
Method: as §1, §2, §3, §4, §5, §6, §7

SW480 = assay: CellTiter-Glo cell viability, IC50 determination; conditions: Homo sapiens, 72 h; SW480 cell line; 3-day CTG assay; read-out: Absolute IC50
Method: as §1, §2, §3, §4, §5, §6, §7

panel of 50 cell lines = assay: Sensitivity of cell line panel by gene mutation status
Source text: We examined the anti-proliferation activity of a MEK inhibitor, trametinib, and an ERK1/2 inhibitor, SCH772984, in a panel of […] (see Table 1).
We divided the 63 cell lines into sensitive, insensitive, and uncertain groups according to their IC50's for SCH772984 and Trametinib, respectively, then detected genes with differential expression or different mutation types between sensitive and insensitive groups. These genes were enriched in several cancer related pathways.
The 63 cell lines were divided into 3 groups (See Table 1): a sensitive group (IC50 values were less than 1), an insensitive group (IC50 values are greater than 10), and an uncertain group (the rest). Accordingly, we got 25 sensitive and 22 insensitive cell lines for SCH772984, and 34 sensitive and 24 insensitive cell lines for Trametinib. Only cell lines with genomic data were used in subsequent analysis. The differentially expressed genes and enriched pathways were analysed using GSEA software, the genes with different mutation types were detected using Fisher's exact test.
29 sensitive and 20 insensitive cell lines have mutation information, and ADAM12, COL14A1, TNN and TP53 were identified by P-value cutoff of 0.01 (See Table 3 and FIG. 1-5).
21 sensitive and 18 insensitive cell lines have mutation information, and ADAM12, PEX5L, TNN and TP53 were identified by P-value cutoff of 0.01 (See Table 3 and FIGS. 6-10).

NCI-H2227 = assay: CellTiter-Glo cell viability, IC50 determination; conditions: 72 h; NCI-H2227 cell line; 3-day CTG assay; read-out: Absolute IC50
Method: as §1, §2, §3, §4, §5, §6, §7

NCI-H1651 = assay: CellTiter-Glo cell viability, IC50 determination; conditions: Homo sapiens, 72 h; NCI-H1651 cell line; 3-day CTG assay; read-out: Absolute IC50
Method: as §1, §2, §3, §4, §5, §6, §7

SK-LU-1 = assay: CellTiter-Glo cell viability, IC50 determination; conditions: Homo sapiens, 72 h; SK-LU-1 cell line; 3-day CTG assay; read-out: Absolute IC50
Method: as §1, §2, §3, §4, §5, §6, §7

NCI-H460 = assay: CellTiter-Glo cell viability, IC50 determination; conditions: Homo sapiens, 72 h; NCI-H460 cell line; 3-day CTG assay; read-out: Absolute IC50
Method: as §1, §2, §3, §4, §5, §6, §7

PC-3 = assay: CellTiter-Glo cell viability, IC50 determination; conditions: Homo sapiens, 72 h; PC-3 cell line; 3-day CTG assay; read-out: Absolute IC50
Method: as §1, §2, §3, §4, §5, §6, §7

[1] = cells harboring mutations in ADAM12 gene
[2] = cells harboring mutations in TNN gene
[3] = cells harboring mutations in TP53 gene

Structure (SMILES)	IC50 (BT474) [µM]	IC50 (NCI-H1155) [µM]	IC50 (NCI-H1703) [µM]	IC50 (SW480) [µM]	sensitivity to inhibitor in cells harboring mutations (panel of 50 cell lines; cells harboring multiple mutations in ADAM12, COL14A1, TNN, and TP53 gene)	sensitivity to inhibitor in cells harboring mutations (panel of 50 cell lines; [1])	sensitivity to inhibitor in cells harboring mutations (panel of 50 cell lines; cells harboring mutations in COL14A1 gene)	sensitivity to inhibitor in cells harboring mutations (panel of 50 cell lines; [2])	sensitivity to inhibitor in cells harboring mutations (panel of 50 cell lines; [3])	IC50 (NCI-H2227) [µM]	IC50 (NCI-H1651) [µM]	IC50 (SK-LU-1) [µM]	IC50 (NCI-H460) [µM]	IC50 (PC-3) [µM]	sensitivity to inhibitor in cells harboring mutations (panel of 50 cell lines; cells harboring multiple mutations in ADAM 12, PEX5L, TNN and TP53 gene)	sensitivity to inhibitor in cells harboring mutations (panel of 50 cell lines; cells harboring mutations in PEX5L gene)
CC(=O)Nc1cccc(-n2c(=O)n(C3CC3)c(=O)c3c(Nc4ccc(I)cc4F)n(C)c(=O)c(C)c32)c1 [Trametinib, N-(3-{3-Cyclopropyl-5-[(2-fluoro-4-iodophenyl)amino]-6,8-dimethyl-2,4,7-trioxo-3,4,6,7-tetrahydropyrido[4,3-d]pyrimidin-1(2H)-yl}phenyl)acetamide]	39	636	15	6.65	increased sensitivity	increased sensitivity	decreased sensitivity	increased sensitivity	increased sensitivity	–	–	–	–	–	–	–
O=C(Nc1ccc2[nH]nc(-c3ccncc3)c2c1)[C@@H]1CCN(CC(=O)N2CCN(c3ccc(-c4ncccn4)cc3)CC2)C1 [SCH772984, (R)-1-(2-oxo-2-(4-(4-(pyrimidin-2-yl)phenyl)piperazin-1-yl)ethyl)-N-(3-(pyridin-4-yl)-1H-indazol-5-yl)pyrrolidine-3-carboxamide]	–	–	–	–	–	increased sensitivity	–	increased sensitivity	increased sensitivity	28.7	48.8	4.69	5.53	14.3	increased sensitivity	increased sensitivity
